pIC50: −log10 of the molar value. A value given as a limit tells only on which side of the number the result lay.

The target in the first experiment is T1, rat α1B+α2b+β1b channels (N-type channels) (Rattus norvegicus, UniProt Q02294).
T1 construct: expressed in transfected cells
T1 sequence (Q02294 whole entry): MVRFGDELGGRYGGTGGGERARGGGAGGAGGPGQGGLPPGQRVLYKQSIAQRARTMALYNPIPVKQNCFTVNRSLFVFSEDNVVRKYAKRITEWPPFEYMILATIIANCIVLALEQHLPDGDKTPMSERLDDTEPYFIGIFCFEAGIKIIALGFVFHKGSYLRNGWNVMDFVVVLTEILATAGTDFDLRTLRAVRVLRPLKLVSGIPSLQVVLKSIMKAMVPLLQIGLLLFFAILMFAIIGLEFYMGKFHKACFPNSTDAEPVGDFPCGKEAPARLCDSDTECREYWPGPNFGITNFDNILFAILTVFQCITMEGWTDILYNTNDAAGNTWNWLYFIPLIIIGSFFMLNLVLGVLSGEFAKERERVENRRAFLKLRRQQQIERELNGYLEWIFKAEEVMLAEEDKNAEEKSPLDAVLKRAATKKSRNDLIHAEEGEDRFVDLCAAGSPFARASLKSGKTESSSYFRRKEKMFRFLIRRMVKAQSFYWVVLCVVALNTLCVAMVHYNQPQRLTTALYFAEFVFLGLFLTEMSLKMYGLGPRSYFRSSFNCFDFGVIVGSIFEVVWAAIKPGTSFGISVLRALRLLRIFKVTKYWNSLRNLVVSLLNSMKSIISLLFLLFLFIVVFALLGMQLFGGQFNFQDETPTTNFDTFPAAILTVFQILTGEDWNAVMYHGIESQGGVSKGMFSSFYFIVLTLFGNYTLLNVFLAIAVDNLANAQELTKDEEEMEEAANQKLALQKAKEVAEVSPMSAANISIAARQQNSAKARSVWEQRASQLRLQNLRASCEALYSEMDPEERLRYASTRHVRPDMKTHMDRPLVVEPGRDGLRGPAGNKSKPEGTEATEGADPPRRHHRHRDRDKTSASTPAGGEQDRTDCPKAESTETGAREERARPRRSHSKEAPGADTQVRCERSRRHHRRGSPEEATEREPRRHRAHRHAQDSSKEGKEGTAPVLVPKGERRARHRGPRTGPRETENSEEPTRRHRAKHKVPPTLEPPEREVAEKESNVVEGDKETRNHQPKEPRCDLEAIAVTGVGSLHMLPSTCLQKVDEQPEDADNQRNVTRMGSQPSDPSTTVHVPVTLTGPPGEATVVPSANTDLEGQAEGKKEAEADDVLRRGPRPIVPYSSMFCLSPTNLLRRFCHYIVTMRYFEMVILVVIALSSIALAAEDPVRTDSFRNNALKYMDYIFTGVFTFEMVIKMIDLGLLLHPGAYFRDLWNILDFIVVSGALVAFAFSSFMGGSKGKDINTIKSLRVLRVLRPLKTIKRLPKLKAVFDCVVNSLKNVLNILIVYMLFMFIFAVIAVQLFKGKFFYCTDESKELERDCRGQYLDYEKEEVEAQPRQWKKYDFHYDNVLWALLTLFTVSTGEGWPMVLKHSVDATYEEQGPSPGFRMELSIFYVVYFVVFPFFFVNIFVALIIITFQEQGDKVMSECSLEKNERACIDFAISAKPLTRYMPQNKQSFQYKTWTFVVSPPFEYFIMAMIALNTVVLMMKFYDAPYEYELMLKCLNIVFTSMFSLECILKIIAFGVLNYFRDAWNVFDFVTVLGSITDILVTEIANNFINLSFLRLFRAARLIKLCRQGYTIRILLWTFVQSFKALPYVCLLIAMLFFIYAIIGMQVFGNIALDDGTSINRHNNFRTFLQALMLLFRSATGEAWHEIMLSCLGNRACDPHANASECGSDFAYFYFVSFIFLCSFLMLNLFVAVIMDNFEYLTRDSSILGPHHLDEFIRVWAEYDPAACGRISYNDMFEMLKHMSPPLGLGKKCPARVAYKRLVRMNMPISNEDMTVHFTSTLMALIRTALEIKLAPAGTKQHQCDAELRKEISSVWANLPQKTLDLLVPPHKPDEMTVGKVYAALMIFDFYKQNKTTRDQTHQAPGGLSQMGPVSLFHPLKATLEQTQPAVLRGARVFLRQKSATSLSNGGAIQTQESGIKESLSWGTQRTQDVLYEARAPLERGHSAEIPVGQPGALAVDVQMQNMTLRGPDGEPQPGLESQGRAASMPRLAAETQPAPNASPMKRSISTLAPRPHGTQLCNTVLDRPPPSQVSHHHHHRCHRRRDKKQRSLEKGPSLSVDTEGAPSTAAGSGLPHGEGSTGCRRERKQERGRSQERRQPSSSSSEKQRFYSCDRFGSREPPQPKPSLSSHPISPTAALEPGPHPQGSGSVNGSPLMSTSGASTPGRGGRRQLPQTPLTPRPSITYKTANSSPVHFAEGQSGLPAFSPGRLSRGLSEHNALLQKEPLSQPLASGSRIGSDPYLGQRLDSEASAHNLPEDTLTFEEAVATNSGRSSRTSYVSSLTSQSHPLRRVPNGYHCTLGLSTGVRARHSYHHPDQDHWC
The experiment is described as follows: Block of α1B N-type channels, whole cell patch recordings (Example 6). It is filed as cell-based. The conditions noted are these: 0.067 Hz; HEK 293, 5 mM barium as charge carrier; read-out: Block of α1B N-type Channels IC50, 0.067 Hz. The protocol: Antagonist activity was measured using whole cell patch recordings on human embryonic kidney cells either stably or transiently expressing rat α1B+α2b+β1b channels (N-type channels) with 5 mM barium as a charge carrier.
For transient expression, host cells, such as human embryonic kidney cells, HEK 293 (ATCC# CRL 1573) were grown in standard DMEM medium supplemented with 2 mM glutamine and 10% fetal bovine serum. HEK 293 cells were transfected by a standard calcium-phosphate-DNA coprecipitation method using the rat α1B+β1b+α2δ N-type calcium channel subunits in a vertebrate expression vector (for example, see Current Protocols in Molecular Biology).
After an incubation period of from 24 to 72 hrs the culture medium was removed and replaced with external recording solution (see below). Whole cell patch clamp experiments were performed using an Axopatch 200B amplifier (Axon Instruments, Burlingame, Calif.) linked to an IBM compatible personal computer equipped with pCLAMP software. Borosilicate glass patch pipettes (Sutter Instrument Co., Novato, Calif.) were polished (Microforge, Narishige, Japan) to a resistance of about 4 MΩ when filled with cesium methanesulfonate internal solution (composition in MM: 109 CsCH3SO4, 4 MgCl2, 9 EGTA, 9 HEPES, pH 7.2). Cells were bathed in 5 mM Ba^++ (in mM: 5 BaCl2, 1 MgCl2, 10 HEPES, 40 tetraethylammonium chloride, 10 glucose, 87.5 CsCl pH 7.2). […] Drugs were perfused directly into the vicinity of the cells using a microperfusion system.
Normalized dose-response curves were fit (Sigmaplot 4.0, SPSS Inc., Chicago, Ill.) by the Hill equation to determine IC50 values. Steady-state inactivation curves were plotted as the normalized test pulse amplitude following 5 s inactivating prepulses at +10 mV increments. Inactivation curves were fit (Sigmaplot 4.0) with the Boltzman equation, Ipeak (normalized)=1/(1+exp((V-Vh)z/25.6)), where V and Vh are the conditioning and half inactivation potentials, respectively, and z is the slope factor.
Using the procedure set forth above, various compounds of the invention were tested for their ability to block N-type calcium channels.
As usually defined, the pIC50 is the negative decadic logarithm of the IC50, by convention in mol/L. For `O=C(CC(c1ccccc1)c1ccccc1)N1CCN(C2c3ccccc3S(=O)(=O)c3ccccc32)CC1` [Compound P27], the pIC50 is 6.07.

In the case of `O=C(CC(c1ccccc1)c1ccccc1)N1CCN(C(c2ccccc2)c2cccc(Cl)c2Cl)CC1` (centres unmarked) [Compound P15], the pIC50 is 6.46.

For `COc1cc(OC)cc(C(c2ccccc2)N2CCN(C(=O)CC(c3ccccc3)c3ccccc3)CC2)c1` (centres unmarked) [Compound P14], the negative-log IC50 (pIC50) was 6.49.

Turning to `O=C(CC(c1ccccc1)c1ccccc1)N1CCN(C(c2ccccc2)c2ccc(O)cc2)CC1` (centres unmarked) [Compound P49], the negative-log IC50 (pIC50) is 6.47.

With `O=C(CC(c1ccccc1)c1ccccc1)N1CCN(C(c2ccccc2)c2ccc(OCc3ccccc3)cc2)CC1` (centres unmarked) [Compound P17], the negative logarithm of the IC50 (pIC50) is 6.54.

On to `O=C(CC(c1ccccc1)c1ccccc1)N1CCN(C(c2ccccc2)c2cc(Cl)cc(Cl)c2)CC1` (centres unmarked) [Compound P9], for which the negative logarithm of the IC50 (pIC50) is 6.64.

With `COc1cc(C(c2ccccc2)N2CCN(C(=O)CC(c3ccccc3)c3ccccc3)CC2)cc(OC)c1O` (centres unmarked) [Compound P21], the negative-log IC50 (pIC50) is 6.36.

Regarding `CC1CN(C(c2ccccc2)c2ccccc2)CCN1C(=O)CC(c1ccccc1)c1ccccc1` (centres unmarked) [Compound P37], the pIC50 was 6.79.

Take `O=C(CC(c1ccccc1)c1ccccc1)N1CCN(C(c2ccccc2)c2ccc(Cl)c(Cl)c2)CC1` (centres unmarked) [Compound P30]: the pIC50 was less than 6.00.

As to `CCOC(=O)C1CN(C(c2ccccc2)c2ccccc2)CCN1C(=O)CC1c2ccccc2-c2ccccc21` (centres unmarked) [Compound P39], the pIC50 was 6.62.

On to `O=C(CC(c1ccccc1)c1ccccc1)N1CCN(C(c2ccccc2)c2ccc(Cl)cc2Cl)CC1` (centres unmarked) [P29 (HC1)], for which the negative-log IC50 (pIC50) is less than 6.00.

In the case of `O=C(CC(c1ccccc1)c1ccccc1)N1CCN(C2c3ccccc3Oc3ccccc32)CC1` [Compound P16], the pIC50 was 6.54.

For the compound `O=C(CC(c1ccccc1)c1ccccc1)N1CCN(C(c2ccccc2)c2c(Cl)cccc2Cl)CC1` (centres unmarked) [Compound P13], the pIC50 is 6.52.

`O=C(O)C1CN(C(c2ccccc2)c2ccccc2)CCN1C(=O)CC1c2ccccc2-c2ccccc21` (centres unmarked) [Compound P38]: the negative logarithm of the IC50 (pIC50) was 6.70.

Regarding `CCOC(=O)C1CN(C(c2ccccc2)c2ccccc2)CCN1C(=O)CC(c1ccccc1)c1ccccc1` (centres unmarked) [Compound P41], the negative logarithm of the IC50 (pIC50) was 6.38.

The same experiment, now with this note: 0.2 Hz; HEK 293, 5 mM barium as charge carrier; read-out: Block of α1B N-type Channels IC50, 0.2 Hz.
In the case of `O=C(CC(c1ccccc1)c1ccccc1)N1CCN(C2c3ccccc3S(=O)(=O)c3ccccc32)CC1` [Compound P27], the pIC50 is 6.26.

Regarding `O=C(CC(c1ccccc1)c1ccccc1)N1CCN(C(c2ccccc2)c2cccc(Cl)c2Cl)CC1` (centres unmarked) [Compound P15], the negative-log IC50 (pIC50) is 6.66.

Take `COc1cc(OC)cc(C(c2ccccc2)N2CCN(C(=O)CC(c3ccccc3)c3ccccc3)CC2)c1` (centres unmarked) [Compound P14]: the pIC50 was 6.68.

For `O=C(CC(c1ccccc1)c1ccccc1)N1CCN(C(c2ccccc2)c2ccc(O)cc2)CC1` (centres unmarked) [Compound P49], the negative-log IC50 (pIC50) was 6.49.

Consider `O=C(CC(c1ccccc1)c1ccccc1)N1CCN(C(c2ccccc2)c2ccc(OCc3ccccc3)cc2)CC1` (centres unmarked) [Compound P17], for which the negative-log IC50 (pIC50) is 6.63.

As for `O=C(CC(c1ccccc1)c1ccccc1)N1CCN(C(c2ccccc2)c2cc(Cl)cc(Cl)c2)CC1` (centres unmarked) [Compound P9], the negative logarithm of the IC50 (pIC50) was 6.77.

Regarding `COc1cc(C(c2ccccc2)N2CCN(C(=O)CC(c3ccccc3)c3ccccc3)CC2)cc(OC)c1O` (centres unmarked) [Compound P21], the pIC50 is 6.60.

For `CC1CN(C(c2ccccc2)c2ccccc2)CCN1C(=O)CC(c1ccccc1)c1ccccc1` (centres unmarked) [Compound P37], the negative logarithm of the IC50 (pIC50) is 7.62.

On to `O=C(CC(c1ccccc1)c1ccccc1)N1CCN(C(c2ccccc2)c2ccc(Cl)c(Cl)c2)CC1` (centres unmarked) [Compound P30], for which the negative-log IC50 (pIC50) was less than 6.00.

Consider `CCOC(=O)C1CN(C(c2ccccc2)c2ccccc2)CCN1C(=O)CC1c2ccccc2-c2ccccc21` (centres unmarked) [Compound P39], for which the negative-log IC50 (pIC50) is 6.72.

As to `O=C(CC(c1ccccc1)c1ccccc1)N1CCN(C(c2ccccc2)c2ccc(Cl)cc2Cl)CC1` (centres unmarked) [P29 (HC1)], the pIC50 is less than 6.00.

With `O=C(CC(c1ccccc1)c1ccccc1)N1CCN(C2c3ccccc3Oc3ccccc32)CC1` [Compound P16], the negative-log IC50 (pIC50) is 6.66.

For `O=C(CC(c1ccccc1)c1ccccc1)N1CCN(C(c2ccccc2)c2c(Cl)cccc2Cl)CC1` (centres unmarked) [Compound P13], the pIC50 is 6.68.

With `O=C(O)C1CN(C(c2ccccc2)c2ccccc2)CCN1C(=O)CC1c2ccccc2-c2ccccc21` (centres unmarked) [Compound P38], the pIC50 was 6.80.

On to `CCOC(=O)C1CN(C(c2ccccc2)c2ccccc2)CCN1C(=O)CC(c1ccccc1)c1ccccc1` (centres unmarked) [Compound P41], for which the pIC50 is 6.41.

For a further experiment, the target named is T2, human α1G subunits (T-type channels) (Homo sapiens, UniProt O43497).
T2 construct: expressed in transfected cells
T2 sequence (O43497 whole entry): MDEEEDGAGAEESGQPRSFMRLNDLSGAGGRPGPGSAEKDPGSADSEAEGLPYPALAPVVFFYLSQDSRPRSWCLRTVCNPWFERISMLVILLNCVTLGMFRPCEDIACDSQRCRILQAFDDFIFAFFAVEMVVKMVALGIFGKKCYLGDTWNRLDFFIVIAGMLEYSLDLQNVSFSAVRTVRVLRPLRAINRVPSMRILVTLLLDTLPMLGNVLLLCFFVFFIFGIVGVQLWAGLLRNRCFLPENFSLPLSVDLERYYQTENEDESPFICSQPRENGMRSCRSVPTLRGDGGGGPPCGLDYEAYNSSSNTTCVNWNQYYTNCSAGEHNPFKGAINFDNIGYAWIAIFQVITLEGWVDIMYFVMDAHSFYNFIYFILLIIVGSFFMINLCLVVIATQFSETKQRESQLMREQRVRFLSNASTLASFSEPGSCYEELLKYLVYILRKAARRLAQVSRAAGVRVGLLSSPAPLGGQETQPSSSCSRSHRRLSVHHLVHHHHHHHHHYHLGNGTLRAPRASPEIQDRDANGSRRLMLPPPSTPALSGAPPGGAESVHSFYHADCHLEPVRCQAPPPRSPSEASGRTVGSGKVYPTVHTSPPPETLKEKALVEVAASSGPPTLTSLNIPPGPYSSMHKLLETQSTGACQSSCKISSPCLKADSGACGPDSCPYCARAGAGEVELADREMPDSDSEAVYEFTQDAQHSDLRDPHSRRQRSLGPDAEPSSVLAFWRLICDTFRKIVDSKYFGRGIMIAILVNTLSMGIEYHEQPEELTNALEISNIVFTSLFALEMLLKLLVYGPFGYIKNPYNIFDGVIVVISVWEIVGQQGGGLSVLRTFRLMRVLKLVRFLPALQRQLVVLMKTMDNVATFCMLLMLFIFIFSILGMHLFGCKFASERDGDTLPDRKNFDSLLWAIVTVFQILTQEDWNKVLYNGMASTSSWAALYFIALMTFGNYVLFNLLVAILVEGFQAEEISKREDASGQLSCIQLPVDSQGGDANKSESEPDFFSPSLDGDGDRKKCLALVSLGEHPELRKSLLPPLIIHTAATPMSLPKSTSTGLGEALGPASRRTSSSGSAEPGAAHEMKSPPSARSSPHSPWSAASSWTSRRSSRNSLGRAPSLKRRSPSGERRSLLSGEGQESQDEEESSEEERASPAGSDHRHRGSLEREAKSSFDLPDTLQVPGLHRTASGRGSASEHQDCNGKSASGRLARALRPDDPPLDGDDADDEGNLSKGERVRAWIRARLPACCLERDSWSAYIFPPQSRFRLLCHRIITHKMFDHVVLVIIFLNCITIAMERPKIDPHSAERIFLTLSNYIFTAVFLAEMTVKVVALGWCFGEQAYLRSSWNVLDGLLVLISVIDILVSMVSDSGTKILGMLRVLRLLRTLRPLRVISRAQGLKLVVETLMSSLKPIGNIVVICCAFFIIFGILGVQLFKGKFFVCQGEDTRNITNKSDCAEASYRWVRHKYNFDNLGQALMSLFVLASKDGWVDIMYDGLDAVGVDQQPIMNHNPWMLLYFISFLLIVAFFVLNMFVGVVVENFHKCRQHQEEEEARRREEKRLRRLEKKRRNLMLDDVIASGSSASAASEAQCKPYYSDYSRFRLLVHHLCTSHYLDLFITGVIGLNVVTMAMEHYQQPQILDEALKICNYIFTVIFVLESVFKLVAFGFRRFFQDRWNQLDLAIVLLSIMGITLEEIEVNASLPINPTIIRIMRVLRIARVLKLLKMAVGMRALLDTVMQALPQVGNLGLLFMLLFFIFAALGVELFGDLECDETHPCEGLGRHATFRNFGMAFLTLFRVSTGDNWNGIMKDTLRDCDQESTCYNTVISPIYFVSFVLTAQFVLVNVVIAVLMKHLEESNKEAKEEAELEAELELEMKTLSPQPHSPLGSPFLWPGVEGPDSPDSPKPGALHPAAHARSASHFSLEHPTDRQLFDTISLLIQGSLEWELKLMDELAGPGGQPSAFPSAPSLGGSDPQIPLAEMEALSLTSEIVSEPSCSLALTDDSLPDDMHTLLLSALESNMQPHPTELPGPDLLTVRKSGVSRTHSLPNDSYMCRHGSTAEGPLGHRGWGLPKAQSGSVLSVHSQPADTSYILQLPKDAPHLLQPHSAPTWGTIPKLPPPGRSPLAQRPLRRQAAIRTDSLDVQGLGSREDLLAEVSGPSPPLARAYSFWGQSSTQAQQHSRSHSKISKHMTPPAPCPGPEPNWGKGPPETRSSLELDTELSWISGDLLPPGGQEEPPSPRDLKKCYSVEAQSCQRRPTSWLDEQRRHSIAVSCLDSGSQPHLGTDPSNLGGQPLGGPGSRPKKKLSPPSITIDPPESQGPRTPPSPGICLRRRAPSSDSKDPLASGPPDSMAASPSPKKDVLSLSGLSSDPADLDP
Put plainly: Block of α1G T-type channels, patch clamp in HEK cell lines (Example 8). The following applies: 80 mV (inactivation protocol); read-out: Block of α1G T-type Channels IC50, 80 mV. It is filed as cell-based. The protocol: Standard patch-clamp techniques were employed to identify blockers of T-type currents. Briefly, previously described HEK cell lines stably expressing human α1G subunits were used for all the recordings (passage #: 4-20, 37° C., 5% CO2). To obtain T-type currents, plastic dishes containing semi-confluent cells were positioned on the stage of a ZEISS AXIOVERT S100 microscope after replacing the culture medium with external solution (see below). Whole-cell patches were obtained using pipettes (borosilicate glass with filament, O.D.: 1.5 mm, I.D.: 0.86 mm, 10 cm length), fabricated on a SUTTER P-97 puller with resistance values of ˜5 MΩ (see below for internal medium).
In the non-inactivating protocol, the holding potential is set at −110 mV and with a pre-pulse at −100 mV for 1 second prior to the test pulse at −40 mV for 50 ms; in the inactivation protocol, the pre-pulse is at approximately −85 mV for 1 second, which inactivates about 15% of the T-type channels, as shown below. [formula]
Test compounds were dissolved in external solution, 0.1-0.01% DMSO. After ˜10 min rest, they were applied by gravity close to the cell using a WPI microfil tubing. The “non-inactivated” pre-pulse was used to examine the resting block of a compound. The “inactivated” protocol was employed to study voltage-dependent block, but the initial data shown below were mainly obtained using the non-inactivated protocol only. IC50 values are shown for various compounds of the invention in Table 5.
In general terms: Patch clamp records ionic current or voltage across a cell membrane.
On to `O=C(CC(c1ccccc1)c1ccccc1)N1CCN(C(c2ccccc2)c2ccc(O)cc2)CC1` (centres unmarked) [Compound P49], for which the negative logarithm of the IC50 (pIC50) is 6.08.

In the case of `CC1CN(C(c2ccccc2)c2ccccc2)CCN1C(=O)CC(c1ccccc1)c1ccccc1` (centres unmarked) [Compound P37], the pIC50 was 6.32.

In the case of `CCOC(=O)C1CN(C(c2ccccc2)c2ccccc2)CCN1C(=O)CC1c2ccccc2-c2ccccc21` (centres unmarked) [Compound P39], the negative-log IC50 (pIC50) was 6.11.

As for `O=C(O)C1CN(C(c2ccccc2)c2ccccc2)CCN1C(=O)CC1c2ccccc2-c2ccccc21` (centres unmarked) [Compound P38], the pIC50 was 6.74.

For `CCOC(=O)C1CN(C(c2ccccc2)c2ccccc2)CCN1C(=O)CC(c1ccccc1)c1ccccc1` (centres unmarked) [Compound P41], the negative-log IC50 (pIC50) was 6.44.

Staying with this experiment, now noted: 100 mV (non-inactivating protocol).
As for `O=C(CC(c1ccccc1)c1ccccc1)N1CCN(C(c2ccccc2)c2ccc(OCc3ccccc3)cc2)CC1` (centres unmarked) [Compound P17], the “Block of α1G T-type Channels IC50, 100 mV” value was “No effect”.

The experiment is the same for the next values; noted with them: 100 mV (non-inactivating protocol); read-out: Block of α1G T-type Channels IC50, 100 mV.
As for `O=C(CC1c2ccccc2-c2ccccc21)N1CCN(C(c2ccccc2)c2ccccc2)CC1` [Compound P33], the negative-log IC50 (pIC50) is 6.39.

Consider `O=C(CC(c1ccccc1)c1ccccc1)N1CCN(C2c3ccccc3-c3ccccc32)CC1` [Compound P31], for which the negative-log IC50 (pIC50) was 6.43.

For the compound `O=C(CC(c1ccccc1)c1ccccc1)N1CCN(C(c2ccccc2)c2cccc(Cl)c2Cl)CC1` (centres unmarked) [Compound P15], the pIC50 was 7.20.

Take `O=C(CC(c1ccccc1)c1ccccc1)N1CCN(C(c2ccccc2)c2ccc(O)cc2)CC1` (centres unmarked) [Compound P49]: the pIC50 was 5.57.

Consider `O=C(CC(c1ccccc1)c1ccccc1)N1CCN(C(c2ccccc2)c2cc(Cl)cc(Cl)c2)CC1` (centres unmarked) [Compound P9], for which the pIC50 was less than 6.00.

Consider `CC1CN(C(c2ccccc2)c2ccccc2)CCN1C(=O)CC(c1ccccc1)c1ccccc1` (centres unmarked) [Compound P37], for which the negative-log IC50 (pIC50) is 6.00.

As to `O=C(CC(c1ccccc1)c1ccccc1)N1CCN(C(c2ccccc2)c2ccc(Cl)c(Cl)c2)CC1` (centres unmarked) [Compound P30], the pIC50 was less than 6.00.

For `CCOC(=O)C1CN(C(c2ccccc2)c2ccccc2)CCN1C(=O)CC1c2ccccc2-c2ccccc21` (centres unmarked) [Compound P39], the negative-log IC50 (pIC50) is 5.66.

On to `O=C(CC(c1ccccc1)c1ccccc1)N1CCN(C(c2ccccc2)c2c(Cl)cccc2Cl)CC1` (centres unmarked) [Compound P13], for which the negative-log IC50 (pIC50) was greater than 6.00.

As for `O=C(O)C1CN(C(c2ccccc2)c2ccccc2)CCN1C(=O)CC1c2ccccc2-c2ccccc21` (centres unmarked) [Compound P38], the pIC50 is 6.16.

For the compound `CCOC(=O)C1CN(C(c2ccccc2)c2ccccc2)CCN1C(=O)CC(c1ccccc1)c1ccccc1` (centres unmarked) [Compound P41], the negative logarithm of the IC50 (pIC50) was 6.00.
